According to PubChem BioAssay (NCI):
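The compound was tested at five concentrations on cells cultured in 96-well plates, with a 48-hour exposure period. At the TGI there is no net growth.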

How the values were obtained:
Assay in all cases: NCI tumour cell line growth inhibition, 48 h
[1] = system: SNB-75 CNS
[2] = system: HOP-92 NSCLC
[3] = system: NCI-H460 lung
[4] = system: BT-549 breast
[5] = system: PC-3 prostate
[6] = system: K-562 leukemia
[7] = system: U251 CNS
[8] = system: LOX IMVI melanoma
[9] = system: KM12 colon
[10] = system: HCT-116 colon
[11] = system: OVCAR-8 ovarian
[12] = system: SK-MEL-28 melanoma
[13] = system: CCRF-CEM leukemia
[14] = system: M14 melanoma
[15] = system: SF-295 CNS
[16] = system: RPMI-8226 leukemia
[17] = system: T-47D breast
[18] = system: SF-268 CNS
[19] = system: HL-60(TB) leukemia
[20] = system: ACHN renal
[21] = system: UO-31 renal
[22] = system: MDA-MB-231 breast
[23] = system: SN12C renal
[24] = system: CAKI-1 renal
[25] = system: A549 NSCLC
[26] = system: SK-OV-3 ovarian
[27] = system: MCF7 breast
[28] = system: SK-MEL-2 melanoma
[29] = system: MOLT-4 leukemia
[30] = system: SR leukemia
[31] = system: OVCAR-3 ovarian
[32] = system: COLO 205 colon
[33] = system: NCI/ADR-RES ovarian
[34] = system: OVCAR-5 ovarian
[35] = system: HT29 colon
[36] = system: RXF 393 renal
[37] = system: HCC-2998 colon
[38] = system: DU-145 prostate
[39] = system: HCT-15 colon
[40] = system: MDA-N
[41] = system: TK-10 renal
[42] = system: UACC-257 melanoma
[43] = system: NCI-H226 lung
[44] = system: HOP-62 NSCLC
[45] = system: NCI-H23 lung
[46] = system: OVCAR-4 ovarian
[47] = system: NCI-H522 lung
[48] = system: MALME-3M melanoma
[49] = system: IGROV1 ovarian
[50] = system: SNB-19 CNS
[51] = system: 786-0 renal
[52] = system: HS 578T breast
[53] = system: UACC-62 melanoma
[54] = system: SW-620 colon
[55] = system: EKVX NSCLC
[56] = system: SF-539 CNS
[57] = system: SK-MEL-5 melanoma
[58] = system: A498 renal
[59] = system: MDA-MB-435

SMILES: O=S(=O)(O)c1ccc2c(N=Nc3ccccc3)c(O)ccc2c1
- TGI [1]: > 100 µM
- TGI [2]: > 100 µM
- TGI [3]: > 100 µM
- TGI [4]: > 100 µM
- TGI [5]: > 100 µM
- TGI [6]: > 100 µM
- TGI [7]: > 100 µM
- TGI [8]: > 100 µM
- TGI [9]: > 100 µM
- TGI [10]: > 100 µM
- TGI [11]: > 100 µM
- TGI [12]: > 100 µM
- TGI [13]: > 100 µM
- TGI [14]: > 100 µM
- TGI [15]: > 100 µM
- TGI [16]: > 100 µM
- TGI [17]: > 100 µM
- TGI [18]: > 100 µM
- TGI [19]: > 100 µM
- TGI [20]: > 100 µM
- TGI [21]: > 100 µM
- TGI [22]: > 100 µM
- TGI [23]: > 100 µM
- TGI [24]: > 100 µM
- TGI [25]: > 100 µM
- TGI [26]: > 100 µM
- TGI [27]: > 100 µM
- TGI [28]: > 100 µM
- TGI [29]: > 100 µM
- TGI [30]: > 100 µM
- TGI [31]: > 100 µM
- TGI [32]: > 100 µM
- TGI [33]: > 100 µM
- TGI [34]: > 100 µM
- TGI [35]: > 100 µM
- TGI [36]: > 100 µM
- TGI [37]: > 100 µM
- TGI [38]: > 100 µM
- TGI [39]: > 100 µM
- TGI [40]: > 100 µM
- TGI [41]: > 100 µM
- TGI [42]: > 100 µM
- TGI [43]: > 100 µM
- TGI [44]: > 100 µM
- TGI [45]: > 100 µM
- TGI [46]: > 100 µM
- TGI [47]: > 100 µM
- TGI [48]: > 100 µM
- TGI [49]: > 100 µM
- TGI [50]: > 100 µM
- TGI [51]: > 100 µM
- TGI [52]: > 100 µM
- TGI [53]: > 100 µM
- TGI [54]: > 100 µM
- TGI [55]: > 100 µM
- TGI [56]: > 100 µM
- TGI [57]: > 100 µM
- TGI [58]: > 100 µM
- TGI [59]: > 100 µM

SMILES: O=[N+]([O-])/C(Cl)=C/C(=C1/Nc2ccccc2O1)[N+](=O)[O-]
- TGI [1]: 35.5 µM
- TGI [2]: 63.7 µM
- TGI [3]: 81 µM
- TGI [4]: 52 µM
- TGI [5]: 32.3 µM
- TGI [6]: 87.1 µM
- TGI [7]: 28.7 µM
- TGI [8]: 23.1 µM
- TGI [9]: 36.2 µM
- TGI [10]: 28.6 µM
- TGI [11]: 40.5 µM
- TGI [12]: 35.9 µM
- TGI [13]: 53.6 µM
- TGI [14]: 51.1 µM
- TGI [15]: 73.7 µM
- TGI [16]: 66.1 µM
- TGI [17]: > 100 µM
- TGI [18]: 54.4 µM
- TGI [19]: 37.7 µM
- TGI [20]: 37.5 µM
- TGI [21]: 35.8 µM
- TGI [22]: 76.4 µM
- TGI [23]: > 100 µM
- TGI [24]: 45.9 µM
- TGI [25]: > 100 µM
- TGI [26]: 75.7 µM
- TGI [27]: > 100 µM
- TGI [29]: 87.2 µM
- TGI [30]: 47.1 µM
- TGI [31]: 57.5 µM
- TGI [32]: 45.1 µM
- TGI [33]: 73.2 µM
- TGI [35]: > 100 µM
- TGI [36]: 38.6 µM
- TGI [37]: 28 µM
- TGI [38]: 41.6 µM
- TGI [39]: 42 µM
- TGI [40]: 46 µM
- TGI [41]: > 100 µM
- TGI [42]: 25.1 µM
- TGI [43]: 79.3 µM
- TGI [44]: 76.6 µM
- TGI [45]: 54.4 µM
- TGI [46]: 84.4 µM
- TGI [47]: 27 µM
- TGI [48]: 29.8 µM
- TGI [49]: > 100 µM
- TGI [50]: 45.5 µM
- TGI [51]: > 100 µM
- TGI [52]: 84.1 µM
- TGI [53]: 56.7 µM
- TGI [54]: 72.3 µM
- TGI [55]: 40.5 µM
- TGI [56]: 59.4 µM
- TGI [57]: 40.5 µM
- TGI [58]: 38.3 µM
- TGI [59]: 32 µM

SMILES: CCCCCCCCCCOCCOCCOCCOCCCCC(O)CCCCCCCC1=C[C@H](C)OC1=O (stereo partly drawn)
- TGI [1]: 24.7 µM
- TGI [2]: 29.6 µM
- TGI [3]: 22 µM
- TGI [4]: 16.1 µM
- TGI [5]: 20.9 µM
- TGI [6]: 36.3 µM
- TGI [7]: 23.5 µM
- TGI [8]: 28 µM
- TGI [9]: 23.9 µM
- TGI [10]: 37.7 µM
- TGI [11]: 33.6 µM
- TGI [12]: 25.3 µM
- TGI [13]: 51.1 µM
- TGI [14]: 35.7 µM
- TGI [15]: 21.5 µM
- TGI [16]: 24 µM
- TGI [17]: 75 µM
- TGI [18]: 22.9 µM
- TGI [19]: 15.5 µM
- TGI [20]: 36 µM
- TGI [21]: 18.3 µM
- TGI [22]: 30.8 µM
- TGI [23]: 29.9 µM
- TGI [24]: 32.2 µM
- TGI [25]: 29.9 µM
- TGI [26]: 41.4 µM
- TGI [27]: 20 µM
- TGI [28]: 25 µM
- TGI [29]: 20.8 µM
- TGI [30]: 19.6 µM
- TGI [31]: 33.8 µM
- TGI [32]: 34.5 µM
- TGI [33]: 41 µM
- TGI [34]: 30.6 µM
- TGI [35]: 24.4 µM
- TGI [36]: 23.5 µM
- TGI [37]: 27 µM
- TGI [38]: 41.3 µM
- TGI [39]: 23.9 µM
- TGI [40]: 24.3 µM
- TGI [41]: 21.4 µM
- TGI [42]: 19.8 µM
- TGI [43]: 23.4 µM
- TGI [45]: 16.6 µM
- TGI [46]: 37.7 µM
- TGI [47]: 21.1 µM
- TGI [48]: 46.3 µM
- TGI [49]: 30.5 µM
- TGI [50]: 27.2 µM
- TGI [51]: 45.5 µM
- TGI [52]: 31.1 µM
- TGI [53]: 28.7 µM
- TGI [54]: 29.5 µM
- TGI [55]: 26.4 µM
- TGI [56]: 24.5 µM
- TGI [57]: 22.2 µM
- TGI [58]: 26.5 µM
- TGI [59]: 28.2 µM

SMILES: O=C1/C(=C/c2ccc(O)c(O)c2)CC/C1=C\c1ccc(O)c(O)c1
- TGI [1]: > 80.1 µM
- TGI [2]: 76.1 µM
- TGI [3]: > 100 µM
- TGI [4]: 28.9 µM
- TGI [5]: > 100 µM
- TGI [6]: 27.7 µM
- TGI [7]: 27.4 µM
- TGI [8]: > 56.1 µM
- TGI [9]: > 100 µM
- TGI [10]: > 47.8 µM
- TGI [11]: > 87.2 µM
- TGI [12]: > 100 µM
- TGI [13]: 9.81 µM
- TGI [14]: 9.56 µM
- TGI [15]: > 100 µM
- TGI [16]: 76.3 µM
- TGI [17]: 63.3 µM
- TGI [18]: 26.7 µM
- TGI [19]: > 46.2 µM
- TGI [20]: 26.6 µM
- TGI [21]: 7.31 µM
- TGI [22]: > 100 µM
- TGI [23]: > 79.5 µM
- TGI [24]: > 57.7 µM
- TGI [25]: > 79.9 µM
- TGI [26]: > 60.2 µM
- TGI [27]: 22.3 µM
- TGI [28]: > 72.7 µM
- TGI [29]: > 36.8 µM
- TGI [30]: > 29.5 µM
- TGI [31]: 32 µM
- TGI [32]: > 86.8 µM
- TGI [33]: > 100 µM
- TGI [34]: > 100 µM
- TGI [35]: > 100 µM
- TGI [36]: 19.3 µM
- TGI [37]: > 100 µM
- TGI [38]: > 100 µM
- TGI [39]: > 100 µM
- TGI [40]: > 100 µM
- TGI [41]: > 100 µM
- TGI [42]: > 100 µM
- TGI [43]: 25.8 µM
- TGI [44]: 39 µM
- TGI [45]: 11.3 µM
- TGI [46]: > 57.5 µM
- TGI [47]: 5.42 µM
- TGI [48]: > 100 µM
- TGI [49]: > 58.5 µM
- TGI [50]: 66.4 µM
- TGI [51]: 38.2 µM
- TGI [52]: > 100 µM
- TGI [53]: 26 µM
- TGI [54]: > 100 µM
- TGI [55]: > 75.3 µM
- TGI [56]: 9.64 µM
- TGI [57]: > 60.3 µM
- TGI [58]: 63.2 µM
- TGI [59]: > 100 µM
